The values below come from patent US7241803B2, “Compounds for inhibition of HIV infection by blocking HIV entry” (New York Blood Center, priority 2002, dated 2007).

Structures are written as SMILES. In brackets after ≈: the same amount, converted by molar mass.

Data set [1] has as its target gp41 six-helix bundle formed by N36 and C34 (Human immunodeficiency virus type 1 group M subtype B, UniProt P04578). Particulars: for inhibitory activity on gp41 six-helix bundle formation (sandwich ELISA): graded concentrations, up to 80 μg/ml, compound preincubated with N36; for inhibition of six-helix bundle formation between N36 and C34 (screening ELISA): single dose 25 μg/ml. The method, then:
ELISA for screening for compounds that inhibit the gp41 six-helix bundle formation. A sandwich ELISA as previously described (23) was used to screen for compounds that inhibit the gp41 six-helix bundle formation. Briefly, peptide N36 (2 μM) was pre-incubated with a test compound at the indicated concentrations at 37° C. for 30 min, followed by addition of C34 (2 μM). In the control experiments, N36 was pre-incubated with C34 at 37° C. for 30 min, followed by addition of the test compound. After incubation at 37° C. for 30 min, the mixture was added to wells of a 96-well polystyrene plate (Costar, Corning Inc., Corning, N.Y.) which were precoated with IgG (2 μg/ml) purified from rabbit antisera directed against the N36/C34 mixture. […] Absorbance at 450 nm was measured using an ELISA reader (Ultra 384, Tecan, Research Triangle Park, N.C.). The percent inhibition by the compounds was calculated as previously described (18) and the concentration for 50% inhibition (IC50) was calculated using the software designated Calcusyn (7), kindly provided by Dr. T. C. Chou (Sloan-Kettering Cancer Center, New York, N.Y.).

Data set [2] has as its system HIV-1 BCF02 (Group O, R5). As to the kind of experiment: infection of PBMCs by primary HIV-1 isolate, p24 production. It is filed as cell-based. The source says: (§1) Culture media were changed every 3 days.
The test system of data set [3] is HIV-1 94UG103 (clade A, X4R5). The description is as above. Particulars: Primary 94UG103 (clade A, X4R5). It is filed as cell-based.
Text: as §1

In data set [4] the test system is HIV-1 93IN101 (clade C, R5). Described as above. The class given is cell-based. Particulars: Primary 93IN101 (clade C, R5).
Text: as §1

The test system of data set [5] is HIV-1 92US657 (clade B, R5). The description is as above. Particulars: Primary 92US657 (clade B, R5). The class given is cell-based.
Text: as §1

The subject of a further data set is MT-2 cells. Particulars: trypan blue, 2 hr. As for the experimental part: Detection of in vitro cytotoxicity. The in vitro cytotoxicity of compounds for MT-2 cells was measured using trypan blue dye exclusion assay (41). Briefly, 100 μl of MT-2 cells (2×10^6/ml) were incubated with an equal volume of a compound diluted in culture media at graded concentrations at 37° C. for 2 hr. Ten microliters of cell suspension was transferred to a well of round-bottom plate and mixed with 10 μl of 0.04% trypan blue solution. The number of viable cells was counted using a hemocytometer under a microscope. The CC50 (the concentration for 50% cytotoxicity) values were calculated using the software Calcusyn (6).

The next data set relates to HIV-1 SF2 (clade B, X4). Nature of the data set: infection by laboratory-adapted HIV-1 strain, p24 production. It is filed as cell-based. The source says:
Assessment of anti-HIV-1 infectivity. […] Reactions were terminated by addition of 1N H2SO4.

Data set [6] concerns the target gp41 six-helix bundle formed by N36 and C34-FITC (Human immunodeficiency virus type 1 group M subtype B, UniProt P04578). The following applies: 200 μg/ml; for gp41 six-helix bundle formation in FN-PAGE: added after N36 preincubated with C34-FITC; for gp41 six-helix bundle band in FN-PAGE: preincubated with N36 before addition of C34-FITC. The method, then:
Fluorescence native polyacrylamide gel electrophoresis (FN-PAGE). FN-PAGE was performed as previously described (32). Briefly, 18% pre-cast Tris-Glycine gels and Novex X-Cell II Mini cell (Invitrogen, Carlsbad, Calif.) were used for native-PAGE. […] In the control, N36 was incubated with C34-FITC at 37° C. for 30 min before addition of the compounds. After incubation at 37° C. for another 30 min, the mixture was diluted in Tris-Glycine native sample buffer, then loaded to 10×1.0 mm wells. Gel electrophdrosis was carried out with 125 V constant voltage at room temperature for about 90 min in Tris-Glycine native running buffer. Immediately after electrophoresis, image of the fluorescence bands in the gel was taken by the FluorChem 8800 Imaging System (Alpha Innotech corp., San Leandro, Calif.) using a transillumination UV light source with excitation wavelength at 302 nm and a fluorescence filter with emission wavelength at 520 nm.

The test system of data set [7] is 5.25M7 & PBMCs infected by 93BR020 (clade F, X4R5). The method, then:
(§2) Inhibition of fusion between PBMCs infected by primary HIV-1 strains (X4 and R5 viruses) with CEMx174 5.25 M7 cells, which express CD4 and both coreceptors, CXCR4 and CCR5, was determined by a luciferase assay. Briefly, 50 μl of compound at graded concentration in triplicate was incubated with equal volume of PHA-stimulated PBMCs (1×10^5/ml) infected by corresponding primary HIV-1 strains, respectively, for 7 days as described above. After incubation at 37° C. for 30 min, 100 μl of CEMx174 5.25 M7 cells (2×10^5) were added and incubated at 37° C. for three days. The cells were collected, washed, and lysed with the lysing reagent included in the luciferase kit (Promega, Corp., Madison, Wis.). Aliquots of cell lysates were transferred to 96-well flat-bottom luminometer plates (Costar, Corning Inc., Corning, N.Y.), followed by addition of luciferase substrate (Promega). The luciferase activity was measured in the Ultra 384 luminometer (Tecan).

Data set [8] concerns 5.25M7 & PBMCs infected by 93IN101 (clade C, R5). The method, then:
as §2

Data set [9] relates to 5.25M7 & PBMCs infected by 93UG065 (clade D, X4R5). The method, then:
as §2

In data set [10] the test system is 5.25M7 & PBMCs infected by 92UG657 (clade B, R5). As for the experimental part: as §2
The subject of data set [11] is 5.25M7 & PBMCs/SF162 (clade B, R5). As for the experimental part: as §2
Data set [12] relates to 5.25M7 & PBMCs infected by 93TH051 (clade E, X4R5). The method, then:
as §2

Data set [13] concerns 5.25M7 & PBMCs infected by 92UG029 (clade A, X4). The method, then: as §2
The test system of data set [14] is 5.25M7 & PBMCs infected by BCF02 (Group O, R5). The method, then:
as §2

Data set [15] concerns 5.25M7 & PBMCs infected by CMU02 (clade E, R5). The method, then: as §2

gp41 six-helix bundle formed by N36 and C34-FITC, sequence (P04578 546-581): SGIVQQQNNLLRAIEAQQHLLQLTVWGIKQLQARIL
gp41 six-helix bundle formed by N36 and C34, sequence (P04578 546-581): as above

Turning to `Cc1ccc(C)n1-c1ccc(C(=O)O)c(O)c1` [NB-2], the “inhibitory activity on gp41 six-helix bundle formation (sandwich ELISA)” value in [1] is listed as “significantly inhibited”. Also, the “inhibition of six-helix bundle formation between N36 and C34 (screening ELISA)” value in data set [1] was “significantly inhibited”. The “IC50 (μg/ml) for inhibition of p24 production” value is 0.21 ± 0.12 µg/mL in [2]; 5.92 ± 0.06 µg/mL in data set [3]; 1.05 ± 0.23 µg/mL in [4]; 10.41 ± 1.88 µg/mL in data set [5]; 0.44 ± 0.03 µg/mL with HIV-1 SF2 (clade B, X4). Further, in the data set with MT-2 cells, the CC50 was 305.60 ± 5.04 µg/mL (≈ 1320 µM). Also, in data set [6], the “gp41 six-helix bundle formation in FN-PAGE” value is “not inhibited”. For the same compound, the “gp41 six-helix bundle band in FN-PAGE” value in data set [6] is recorded as “the intensity of the upper bands were significantly decreased”. Also, the “IC50 (μg/ml) for inhibition of cell-cell fusion” value in [7] worked out at 1.66 ± 0.07 µg/mL; in [8] it was 3.27 ± 0.18 µg/mL; in data set [9], 6.07 ± 0.07 µg/mL; in data set [10], 6.64 ± 1.13 µg/mL; in [11] it was 4.86 ± 0.34 µg/mL; in data set [12], 1.76 ± 0.07 µg/mL. In addition, the “IC50 (μg/ml) for inhibition of cell-cell fusion” value in data set [13] was found to be 2.50 ± 0.02 µg/mL; in data set [14], 0.93 ± 0.57 µg/mL; in data set [15], 8.14 ± 1.09 µg/mL.

On to `O=C(O)c1cc(-n2cccc2)ccc1Cl` [NB-64], for which the “inhibitory activity on gp41 six-helix bundle formation (sandwich ELISA)” value in [1] is “significantly inhibited”. Besides, the “inhibition of six-helix bundle formation between N36 and C34 (screening ELISA)” value in data set [1] is on record as “significantly inhibited”. Also, the “IC50 (μg/ml) for inhibition of p24 production” value in data set [2] worked out at 1.31 ± 0.90 µg/mL; in data set [3], 7.94 ± 0.96 µg/mL; in data set [4] it was 4.38 ± 0.19 µg/mL; in data set [5] it was 6.60 ± 1.80 µg/mL; with HIV-1 SF2 (clade B, X4) it was 1.34 ± 0.06 µg/mL. The same compound showed a cytotoxic concentration (CC50) in the data set with MT-2 cells greater than 500 µg/mL. Moreover, the “gp41 six-helix bundle formation in FN-PAGE” value in data set [6] is “not inhibited”. In addition, in data set [6], the “gp41 six-helix bundle band in FN-PAGE” value is reported as “the intensity of the upper bands were significantly decreased”. The “IC50 (μg/ml) for inhibition of cell-cell fusion” value amounted to 2.24 ± 0.31 µg/mL in data set [7]; 18.26 ± 0.01 µg/mL in data set [8]; 20.77 ± 1.94 µg/mL in [9]; 39.00 ± 5.27 µg/mL in data set [10]; 20.86 ± 0.20 µg/mL in data set [11]; 12.72 ± 0.32 µg/mL in [12]. The “IC50 (μg/ml) for inhibition of cell-cell fusion” value came out at 2.21 ± 0.56 µg/mL in data set [13], 10.30 ± 5.90 µg/mL in [14] and 4.89 ± 1.08 µg/mL in [15].
